According to patent publication US20090088380A1, “GHRH ANALOGS AND THERAPEUTIC USES THEREOF” (priority 2007, published 2009):
Non-standard residues stand in square brackets, D forms with d. Residues, ends and D or L forms follow the SMILES beside them.

Test system: Rat Growth Hormone
Assay: In vivo GH secretion in adult female Sprague-Dawley rats, single SC or IV injection, RIA
Conditions: for GH AUC 45 min / GH AUC 300 min / GH AUC 120 min: in ng·min/mL (unit assumed)
Experimental: In order to assess such use of the GHRH analogs, the following experiments were undertaken. More specially, the goal was to assess the pharmacodynamic and pharmacokinetic profiles and acute toxicity of GHRH analog #5 when administered once by subcutaneous or intravenous injection to female Sprague-Dawley rats followed by a 14-day observation period and the pharmacodynamic profile in a male Beagle dog when the GHRH analog was administered at escalating doses to the same dog by subcutaneous injection with at least 2-day washout period. The above GHRH analog is a variation of a synthetic acetate salt of an amidated synthetic 29-amino acid peptide that corresponds to the amino-terminal segment of the naturally-occurring human growth hormone—releasing hormone (GHRH) with four amino acid substitutions in positions 2, 10, 15, and 22.
Human GHRH analog #5 in 0.9% sodium chloride for injection USP was administered once either by intravenous (IV) or subcutaneous (SC) injection to female rats followed by a 14-day observation period, as shown in Table 2. Prior to administration, all dosing formulations were filtered using a 0.22 μm filter to ensure sterility. The actual amount of GHRH analog #5 administered was calculated and adjusted based on the animal's most recent body weight. Dosing started at approximately the same time each day, commencing at 9:00 am ±30 minutes.
For pharmacodynamic investigations, blood samples (approximately 1.3 ml) were collected from 2 animals per group per time point (maximum 3 time points/animal) via a jugular venipuncture at the following time points: […] All blood samples were collected into potassium EDTA tubes and centrifuged under refrigeration (2 to 8° C., 1500 g for 10 minutes).
Rat Growth Hormone Determination • Plasma GH was determined by Linco Diagnostic Services using their own kit. Linco's Rat Growth Hormone radioimmunoassay kit (RIA) (RGH-45HK) is intended for the quantitative determination of Rat Growth Hormone in serum, plasma, and tissue culture media. It is a completely homologous assay since the antibody was raised against recombinant Rat Growth Hormone and both the tracer and the standard are prepared with the same recombinant Rat Growth Hormone. The kit includes standards, antibody, tracer, quality controls, precipitating reagents and buffer necessary to complete a RIA. The assay was conducted under the following conditions: overnight; equilibrium incubation at room temperature; sample volume: 100 μl serum, plasma, or cell culture media. The label used was 125I-Rat Growth Hormone (20,000 CPM/tube).

## CC[C@H](C)[C@H](NC(=O)[C@H](C)NC(=O)[C@H](CC(=O)O)NC(=O)[C@@H](C)NC(=O)[C@@H](N)Cc1ccc(O)cc1)C(=O)N[C@@H](Cc1ccccc1)C(=O)N[C@H](C(=O)N[C@@H](CC(N)=O)C(=O)N[C@@H](CO)C(=O)N[C@H](Cc1ccc(O)cc1)C(=O)N[C@@H](CCCNC(=N)N)C(=O)N[C@@H](CCCCN)C(=O)N[C@H](C(=O)N[C@@H](CC(C)C)C(=O)N[C@H](C)C(=O)N[C@@H](CCC(N)=O)C(=O)N[C@@H](CC(C)C)C(=O)N[C@@H](CO)C(=O)N[C@@H](C)C(=O)N[C@@H](CCCNC(=N)N)C(=O)N[C@@H](CCCCN)C(=O)N[C@@H](CCCCN)C(=O)N[C@@H](CC(C)C)C(=O)N[C@@H](CCC(N)=O)C(=O)N[C@@H](CC(=O)O)C(=O)N[C@H](C(=O)N[C@@H](CCSC)C(=O)N[C@@H](CO)C(=O)N[C@@H](CCCNC(=N)N)C(N)=O)[C@@H](C)CC)C(C)C)[C@@H](C)O [GHRH analog #5, [D-Ala^2, D-Tyr^10, D-Ala^15, Lys^22] hGHRH(1-29)-NH2] (H-Y[dA]DAIFTNS[dY]RKVL[dA]QLSARKKLQDIMSR-NH2)
0.001 mg/kg BW IV, 4 min
  Plasma Rat Growth Hormone: 26.2 ng/mL
0.001 mg/kg BW IV, 10 min
  Plasma Rat Growth Hormone: 25.85 ng/mL
0.001 mg/kg BW IV, 15 min
  Plasma Rat Growth Hormone: 34.65 ng/mL
0.001 mg/kg BW IV, 45 min
  Plasma Rat Growth Hormone: 21.15 ng/mL
0.001 mg/kg BW IV, 300 min
  Plasma Rat Growth Hormone: 67.15 ng/mL
0.001 mg/kg BW IV
  GH AUC 45 min: 1197
  GH AUC 300 min: 12280
0.001 mg/kg BW IV, −120 min
  Plasma Rat Growth Hormone: 23.85 ng/mL
0.001 mg/kg BW SC, 15 min
  Plasma Rat Growth Hormone: 36.7 ng/mL
0.001 mg/kg BW SC, 30 min
  Plasma Rat Growth Hormone: 14.2 ng/mL
0.001 mg/kg BW SC, 60 min
  Plasma Rat Growth Hormone: 26.85 ng/mL
0.001 mg/kg BW SC, 120 min
  Plasma Rat Growth Hormone: 17.8 ng/mL
0.001 mg/kg BW SC, 300 min
  Plasma Rat Growth Hormone: 21.85 ng/mL
0.001 mg/kg BW SC
  GH AUC 120 min: 2914
  GH AUC 300 min: 6482
0.001 mg/kg BW SC, −120 min
  Plasma Rat Growth Hormone: 20.15 ng/mL
0.01 mg/kg BW SC, 15 min
  Plasma Rat Growth Hormone: 190.4 ng/mL
0.01 mg/kg BW SC, 30 min
  Plasma Rat Growth Hormone: 31.9 ng/mL
0.01 mg/kg BW SC, 60 min
  Plasma Rat Growth Hormone: 8.5 ng/mL
0.01 mg/kg BW SC, 120 min
  Plasma Rat Growth Hormone: 7.6 ng/mL
0.01 mg/kg BW SC, 300 min
  Plasma Rat Growth Hormone: 11.95 ng/mL
0.01 mg/kg BW SC
  GH AUC 120 min: 5153
  GH AUC 300 min: 6913
0.01 mg/kg BW SC, −120 min
  Plasma Rat Growth Hormone: 20.4 ng/mL
0.03 mg/kg BW IV, 4 min
  Plasma Rat Growth Hormone: 68.45 ng/mL
0.03 mg/kg BW IV, 10 min
  Plasma Rat Growth Hormone: 254.65 ng/mL
0.03 mg/kg BW IV, 15 min
  Plasma Rat Growth Hormone: 75.1 ng/mL
0.03 mg/kg BW IV, 45 min
  Plasma Rat Growth Hormone: 33.4 ng/mL
0.03 mg/kg BW IV, 300 min
  Plasma Rat Growth Hormone: 38.75 ng/mL
0.03 mg/kg BW IV
  GH AUC 45 min: 3407
  GH AUC 300 min: 12060
0.03 mg/kg BW IV, −120 min
  Plasma Rat Growth Hormone: 43.15 ng/mL
0.03 mg/kg BW SC, 15 min
  Plasma Rat Growth Hormone: 240.9 ng/mL
0.03 mg/kg BW SC, 30 min
  Plasma Rat Growth Hormone: 39.05 ng/mL
0.03 mg/kg BW SC, 60 min
  Plasma Rat Growth Hormone: 9.5 ng/mL
0.03 mg/kg BW SC, 120 min
  Plasma Rat Growth Hormone: 4.6 ng/mL
0.03 mg/kg BW SC, 300 min
  Plasma Rat Growth Hormone: 11.25 ng/mL
0.03 mg/kg BW SC
  GH AUC 120 min: 6192
  GH AUC 300 min: 7618
0.03 mg/kg BW SC, −120 min
  Plasma Rat Growth Hormone: 36.1 ng/mL
0.1 mg/kg BW SC, 15 min
  Plasma Rat Growth Hormone: 252.4 ng/mL
0.1 mg/kg BW SC, 30 min
  Plasma Rat Growth Hormone: 43.8 ng/mL
0.1 mg/kg BW SC, 60 min
  Plasma Rat Growth Hormone: 7.65 ng/mL
0.1 mg/kg BW SC, 120 min
  Plasma Rat Growth Hormone: 4.45 ng/mL
0.1 mg/kg BW SC, 300 min
  Plasma Rat Growth Hormone: 18.7 ng/mL
0.1 mg/kg BW SC
  GH AUC 120 min: 6423
  GH AUC 300 min: 8507
0.1 mg/kg BW SC, −120 min
  Plasma Rat Growth Hormone: 20.4 ng/mL
0.3 mg/kg BW SC, 15 min
  Plasma Rat Growth Hormone: 247.9 ng/mL
0.3 mg/kg BW SC, 30 min
  Plasma Rat Growth Hormone: 133.5 ng/mL
0.3 mg/kg BW SC, 60 min
  Plasma Rat Growth Hormone: 16.75 ng/mL
0.3 mg/kg BW SC, 120 min
  Plasma Rat Growth Hormone: 4.00 ng/mL
0.3 mg/kg BW SC, 300 min
  Plasma Rat Growth Hormone: 21.8 ng/mL
